According to patent US7034070B2, “Arylalkyl aminofunctional silanes for epoxy laminates” (priority 2002, dated 2006):

Test: Water solubility test (aqueous solution clarity and stability)
Assay type: physicochemical
Conditions: for time the solution stayed clear (before turning hazy): 1.0 gram in 100 ml distilled water with 1% glacial acetic acid, ambient temperatures; for time until the slightly hazy solution turned clear: 1.0 gram sample in 100 ml distilled water acidified with 1% glacial acetic acid, stirring
Protocol: With stirring, 1.0 gram sample from Example 1 was added gradually to 100 ml of distilled water acidified with 1% glacial acetic acid. The solution was slightly hazy at the beginning but turned clear after 45 min. while the commercial product Z-6032 (Dow Coming) under similar conditions turned clear in 20 min.

Compound	time the solution stayed clear (before turning hazy)	time until the slightly hazy solution turned clear [min]
C=Cc1ccc(CNCCNCCC[Si](OC)(OC)OC)cc1.Cl [Example Z-6032, CH2═CHC6H4CH2NH(CH2)2NH(CH2)3Si(OCH3)3•HCl]	less than 1 week	20
CH3CH2C6H4CH2NH(CH2)2NH(CH2)3Si(OCH3)3•HCl [Example 1]	more than two weeks	45
